Data: US11939379B2 (The Regents of the University of California, priority 2017, dated 2024)
“Also recorded” adds a separate entry of the source.

Key:
BCL-xL/ABT-263 complex = target: T1, BCL-xL/ABT-263 complex (Homo sapiens, UniProt Q07817); experiment: Biolayer interferometry, Fab binding to BCL-xL in the presence of ABT-263; settings: ABT-263 in place of ABT-737
T1 construct: C-terminally truncated BCL-xL (residues 2-215) with an N-terminal AviTag; made in house; host or cells: E. coli BL21(DE3), pMCSG7 vector
T1 sequence (Q07817 2-215, one chain of several): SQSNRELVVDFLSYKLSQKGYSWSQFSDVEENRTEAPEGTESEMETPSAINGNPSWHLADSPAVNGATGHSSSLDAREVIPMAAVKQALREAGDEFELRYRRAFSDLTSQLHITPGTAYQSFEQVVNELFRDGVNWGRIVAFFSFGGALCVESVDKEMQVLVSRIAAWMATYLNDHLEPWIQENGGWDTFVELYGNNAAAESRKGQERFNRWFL
Description: Biolayer interferometery data were measured using an Octet RED384 instrument (ForteBio). Biotinylated BCL-xL was immobilized on a Streptavidin (SA) biosensor using a 200 nM solution. Serial dilutions of Fabs in kinetics buffer (PBS, pH 7.4, 0.05% Tween-20, 0.2% BSA, 10 μM biotin) with small molecule (1 μM), peptide (5 μM), or vehicle (0.05% DMSO) were used as analyte. Affinity (KD) and kinetic parameters (kon and koff) were calculated from a global fit (1:1) of the data using the Octet RED384 software.

[1] = tested on: scAZ1-VPR and dCas9-BCL-xL in reporter HEK293T cell line containing the Gal4-UAS-Fluc operon; experiment: CRISPRa-mediated luciferase assay (scAZ1 AbCID gene circuit); assay type: cell-based
Description: For CRISPRa-mediated transcriptional activation, the reporter HEK293T cell line containing the Gal4-UAS-Fluc operon (Collaboration, O. R, Nat. Methods, 13:191-192 (2016)) was seeded at ˜0.5×10^6 cells/well in 6-well plates and cultured under 5% CO2 at 37° C. overnight. The cells were transfected with a plasmid encoding scAZ1-VPR and another plasmid encoding dCas9-BCL-xL and Gal4 sgRNA at a 1:1 ratio. The transfected cells were trypsinized and resuspended in fresh DMEM supplemented with 10% FBS 24 h after transfection. Cells were then aliquoted into a 96-well poly-D-lysine coated plate (Corning) and allowed to adhere for 24 h before 20 nM ABT-737 was added to induce CRISPRa activity. Cells were then further incubated for 48 h before evaluation of luciferase gene expression. To determine luciferase activity, cells were lysed with Bright-Glo Luciferase Assay substrate (Promega) and analyzed using an Infinite M200 PRO plate reader (Tecan). The luciferase activities were background-subtracted with a negative control (cells expressing full-length dCas9-VPR and PHOX2B negative-sgRNA), and normalized against a positive control (cells expressing full-length dCas9-VPR and Gal4 sgRNA). For investigation of cellular dose response, different concentrations of ABT-737 (0.014 nM, 0.041 nM, 0.12 nM, 0.37 nM, 1.1 nM, 3.3 nM, 10 nM, 30 nM, 90 nM, 270 nM) were added to the cells after cells were transfected and aliquoted to a 96-well plate.

platelets = settings: Zhang et al. 2007; cited from earlier work
K562 cells = experiment: Cellular toxicity of ABT-737, CellTiter-Glo; assay type: cell-based; settings: K562, 24 h, viability relative to DMSO; read-out: IC50 (cell death)
Description: (§1) W T Jurkat, AbCID CAR Jurkat, Conventional CAR Jurkat, WT K562, CD19^+ K562, and HEK293T cells were plated in 96-well plates at ˜5000 cells per well. Each cell line was incubated with varying concentrations of ABT-737 (10 μM initial, 3-fold serial-dilutions, 8 times) or DMSO alone (0.1%). After 24 h, cell viability was measured using a CellTiter-Glo® Luminescent Cell Viability Assay (Promega) and the manufacturer's standard protocol. The percent viability relative to DMSO treatment was plotted and analyzed for each cell line using Prism software (GraphPad).

HEK293T cells = experiment: Cellular toxicity of ABT-737, CellTiter-Glo; assay type: cell-based; settings: 24 h, viability relative to DMSO, read-out: IC50 (cell death)
Description: as §1

Jurkat cells = experiment: Cellular toxicity of ABT-737, CellTiter-Glo; assay type: cell-based; settings: 24 h, viability relative to DMSO, read-out: IC50 (cell death)
Description: as §1

[2] = tested on: AbCID CAR (BCL-xL) Jurkat NFAT reporter cells co-cultured with K562 target cells; experiment: Quantification of CAR T-cell activation (NFAT-GFP, CD69, IL-2); assay type: cell-based; settings: for NFAT-dependent GFP reporter expression / IL-2 secretion / CD69 expression: antibody 5 nM, 20 hours
Description: Jurkat cells expressing CARs were mixed with antigen positive (CD19^+) or antigen negative (CD19^−) K562 target cells at a ratio of 1:2. […] After overnight incubation at 37° C., cells were pelleted by centrifugation. NFAT-dependent GFP reporter expression was quantified by flow cytometry using a FACSCanto II (BD Biosciences). CD69 expression was quantified by immunofluorescence flow cytometry using a FACSCanto II (BD Biosciences) using an APC anti-human CD69 Antibody (Biolegend 310910). IL-2 secretion was quantified by collection of supernatants and analysis by ELISA using the BD Human IL-2 ELISA set as per manufacturer's protocol. All flow cytometry data analysis was performed using FlowJo software and all plots were generated using Prism software (GraphPad).

mice = settings: mouse, in vivo; cited from earlier work
[3] = tested on: T cells co-cultured with CD19+ K562 cells; experiment: AbCID-regulated inducible bispecific T cell engager, T cell activation; assay type: cell-based; settings: for T-cell activation, CD69 expression / T-cell activation, NFAT signaling (GFP expression): antibody conjugated to anti-CD19, Bcl-2 conjugated to anti-CD3, addition of ABT-199
Source text: A representative embodiment of an AbCID-regulated inducible bispecific T cell engager is shown in FIG. 19A, having a first AbCID component conjugated to an anti-CD3 antibody and a second AbCID component conjugated to an antibody that recognizes a tumor specific antigen. Administration of the small molecule dimerizer allows for generation of the CID complex, resulting in recruitment of T cells to cancer cells expressing the tumor specific antigen.

CC1(C)CCC(c2ccc(Cl)cc2)=C(CN2CCN(c3ccc(C(=O)NS(=O)(=O)c4ccc(N[C@H](CCN5CCOCC5)CSc5ccccc5)c(S(=O)(=O)C(F)(F)F)c4)cc3)CC2)C1 [ABT-263]
formation of a dimer (BCL-xL/ABT-263 complex): does not result in the formation of a dimer

CN(C)CC[C@H](CSc1ccccc1)Nc1ccc(S(=O)(=O)NC(=O)c2ccc(N3CCN(Cc4ccccc4-c4ccc(Cl)cc4)CC3)cc2)cc1[N+](=O)[O-] [ABT-737]
concentration range used to induce CRISPRa activity [1]: < 270 nM
EC50 ([1]; 48-hour induction, AbCID-gated system, read-out: EC50 of induction of luciferase expression): 0.0089 ± 0.001 µM
luciferase expression ([1]; ABT-737 20 nM, 48 hours, Gal4 sgRNA): robust expression of luciferase
luciferase expression with a negative sgRNA ([1]; AbCID-gated system with a negative sgRNA): no increase in luciferase expression
concentration observed to be toxic to platelets (platelets): low μM
IC50 (K562 cells): > 10 µM
IC50 (HEK293T cells): ~10 µM
IC50 (Jurkat cells): ~2 µM
concentration range used to induce AbCID CAR activity [2]: < 100 nM
T-cell activation by ABT-737 on its own ([2]; ABT-737 alone): not able to induce T-cell activation on its own
NFAT-dependent GFP reporter expression ([2]; CD19+ K562 target cells): dose-dependent activation of the NFAT pathway
IL-2 secretion ([2]; CD19+ K562 target cells, ELISA): dose-dependent secretion of IL-2
CD69 expression ([2]; CD19+ K562 target cells, immunofluorescence flow cytometry): dose-dependent expression of CD69
CD69 expression ([2]; CD19− K562 target cells): no expression was observed
IL-2 secretion ([2]; CD19− K562 target cells): no secretion was observed
NFAT-dependent GFP reporter expression ([2]; CD19− K562 target cells): not observed; also recorded: no activation was observed
tolerability in mice (mice): generally well tolerated by mice, except for platelet toxicity

B1: AZ21: Fab clone selected against Bcl-2 + ABT-199 complex (antibody)
heavy: EISEVQLVESGGGLVQPGGSLRLSCAASGFNLSYSSMHWVRQAPGKGLEWVASISPYSSYTYYADSVKGRFTISADTSKNTAYLQMNSLRAEDTAVYYCARGYWSFYGMDYWGQGTLVTVSSASTKGPSVFPLAPSSKSTSGGTAALGCLVKDYFPEPVTVSWNSGALTSGVHTFPAVLQSSGLYSLSSVVTVPSSSLGTQTYICNVNHKPSNTKVDKKVEPKSCDKTHTGGSHHHHHH
light: SDIQMTQSPSSLSASVGDRVTITCRASQSVSSAVAWYQQKPGKAPKLLIYSASSLYSGVPSRFSGSRSGTDFTLTISSLQPEDFATYYCQQYYAHYLFTFGQGTKVEIKRTVAAPSVFIFPPSDSQLKSGTASVVCLLNNFYPREAKVQWKVDNALQSGNSQESVTEQDSKDSTYSLSSTLTLSKADYEKHKVYACEVTHQGLSSPVTKSFNRGECGGSDYKDDDDK
T-cell activation, CD69 expression [3]: increased expression of CD69
T-cell activation, NFAT signaling (GFP expression) [3]: activation of NFAT signaling
level of T-cell activation (NFAT activation) versus ABT-199 concentration ([3]; titration of ABT-199): tunable by titration of ABT-199 concentration

B2: AZ35: Fab clone selected against Bcl-2 + ABT-199 complex (antibody)
heavy: EISEVQLVESGGGLVQPGGSLRLSCAASGFNLYYSSIHWVRQAPGKGLEWVAYISSYSGYTYYADSVKGRFTISADTSKNTAYLQMNSLRAEDTAVYYCARGGWYWASGSYYGAMDYWGQGTLVTVSSASTKGPSVFPLAPSSKSTSGGTAALGCLVKDYFPEPVTVSWNSGALTSGVHTFPAVLQSSGLYSLSSVVTVPSSSLGTQTYICNVNHKPSNTKVDKKVEPKSCDKTHTGGSHHHHHH
light: SDIQMTQSPSSLSASVGDRVTITCRASQSVSSAVAWYQQKPGKAPKLLIYSASSLYSGVPSRFSGSRSGTDFTLTISSLQPEDFATYYCQQYGYSVLITFGQGTKVEIKRTVAAPSVFIFPPSDSQLKSGTASVVCLLNNFYPREAKVQWKVDNALQSGNSQESVTEQDSKDSTYSLSSTLTLSKADYEKHKVYACEVTHQGLSSPVTKSFNRGECGGSDYKDDDDK
T-cell activation, CD69 expression [3]: increased expression of CD69
T-cell activation, NFAT signaling (GFP expression) [3]: activation of NFAT signaling

B3: AZ34: Fab clone selected against Bcl-2 + ABT-199 complex (antibody)
heavy: EISEVQLVESGGGLVQPGGSLRLSCAASGFNIYYSSMHWVRQAPGKGLEWVASISSYSGSTSYADSVKGRFTISADTSKNTAYLQMNSLRAEDTAVYYCARGGWFWGSGGYSSAFDYWGQGTLVTVSSASTKGPSVFPLAPSSKSTSGGTAALGCLVKDYFPEPVTVSWNSGALTSGVHTFPAVLQSSGLYSLSSVVTVPSSSLGTQTYICNVNHKPSNTKVDKKVEPKSCDKTHTGGSHHHHHH
light: SDIQMTQSPSSLSASVGDRVTITCRASQSVSSAVAWYQQKPGKAPKLLIYSASSLYSGVPSRFSGSRSGTDFTLTISSLQPEDFATYYCQQHHSLITFGQGTKVEIKRTVAAPSVFIFPPSDSQLKSGTASVVCLLNNFYPREAKVQWKVDNALQSGNSQESVTEQDSKDSTYSLSSTLTLSKADYEKHKVYACEVTHQGLSSPVTKSFNRGECGGSDYKDDDDK
T-cell activation, CD69 expression [3]: increased expression of CD69
T-cell activation, NFAT signaling (GFP expression) [3]: activation of NFAT signaling
